In PubChem BioAssay (NCI):
Several values for one entry are separate records, joined by “and”; a condition that tells them apart may be missing. Equal values may be shown once.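 Exposure lasted 48 hours, with cells grown in 96-well plates and compounds tested at five concentrations. GI50: concentration for 50% inhibition of growth. TGI: concentration producing complete growth inhibition.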

Key:
Assay in all cases: NCI tumour cell line growth inhibition, 48 h
MDA-N = tested on: MDA-N
A549 NSCLC = tested on: A549 NSCLC
IGROV1 ovarian = tested on: IGROV1 ovarian
NCI-H226 lung = tested on: NCI-H226 lung
HL-60(TB) leukemia = tested on: HL-60(TB) leukemia
SR leukemia = tested on: SR leukemia
CCRF-CEM leukemia = tested on: CCRF-CEM leukemia
SK-MEL-28 melanoma = tested on: SK-MEL-28 melanoma
OVCAR-5 ovarian = tested on: OVCAR-5 ovarian
NCI-H522 lung = tested on: NCI-H522 lung
LOX IMVI melanoma = tested on: LOX IMVI melanoma
SNB-75 CNS = tested on: SNB-75 CNS

`C=CCN1C(=O)/C(=C/c2ccc(OC)cc2)N=C1SC1OC(COC(C)=O)C(OC(C)=O)C(OC(C)=O)C1OC(C)=O` (centres undefined) was tested, and the TGI (MDA-N) was over 100 µM, the TGI (A549 NSCLC) was over 100 µM and the GI50 (IGROV1 ovarian) was 20.4 µM and 75.4 µM. The TGI (IGROV1 ovarian) was over 100 µM, the TGI (NCI-H226 lung) was 55.5 µM and > 100 µM and the GI50 (HL-60(TB) leukemia) was 11.5 µM and 2.9 µM. The TGI (HL-60(TB) leukemia) was > 94 µM and 15.4 µM, the TGI (SR leukemia) was over 100 µM and the GI50 (CCRF-CEM leukemia) was 21.7 µM. For the same compound, the TGI (CCRF-CEM leukemia) was over 100 µM, the GI50 (SK-MEL-28 melanoma) was 24.6 µM and > 100 µM and the TGI (SK-MEL-28 melanoma) was over 100 µM. For the same compound, the GI50 (OVCAR-5 ovarian) was 19.3 µM and 56.3 µM, the TGI (OVCAR-5 ovarian) was 39.7 µM and > 100 µM and the GI50 (NCI-H522 lung) was 5.2 µM and 16.4 µM. For the same compound, the TGI (NCI-H522 lung) was over 100 µM, the GI50 (LOX IMVI melanoma) was 21.1 µM and 43.1 µM and the TGI (LOX IMVI melanoma) was over 100 µM. The TGI (SNB-75 CNS) was 40.7 µM and > 100 µM.
Compound `CNc1cccc2c1C(C)C[C@]1(C)C(=O)Nc3ccccc3[C@H]21` (some centres undefined) has a TGI (MDA-N) of 69.9 µM, a TGI (A549 NSCLC) of 38.6 µM and a TGI (IGROV1 ovarian) of over 100 µM. The TGI (NCI-H226 lung) was 61.4 µM, the TGI (HL-60(TB) leukemia) was over 100 µM and the TGI (SR leukemia) was 43.3 µM. The TGI (CCRF-CEM leukemia) was over 100 µM, the TGI (SK-MEL-28 melanoma) was 91.8 µM and the TGI (OVCAR-5 ovarian) was over 100 µM. For the same compound, the TGI (NCI-H522 lung) was 89 µM, the TGI (LOX IMVI melanoma) was 33.7 µM and the TGI (SNB-75 CNS) was 28.3 µM.
`COc1cc(/C=C2\C(=O)N(c3ccc(NC(C)=O)cc3)C(c3ccccc3)S2(=O)=O)cc(OC)c1OC` (centres undefined) gave a TGI (MDA-N) of over 100 µM, a TGI (A549 NSCLC) of over 100 µM and a TGI (IGROV1 ovarian) of over 100 µM. The TGI (NCI-H226 lung) was over 100 µM, the TGI (HL-60(TB) leukemia) was 79.1 µM and the TGI (SR leukemia) was over 100 µM. The TGI (CCRF-CEM leukemia) was over 100 µM, the TGI (SK-MEL-28 melanoma) was over 100 µM and the TGI (OVCAR-5 ovarian) was over 100 µM. The TGI (NCI-H522 lung) was over 100 µM, the TGI (LOX IMVI melanoma) was over 100 µM and the TGI (SNB-75 CNS) was over 100 µM.
Work on `CC1=NN(C(=O)CC(=O)Nc2ccc(Cl)cc2)C(=O)C1N=Nc1ccc(S(=O)(=O)c2ccc(N=NC3C(=O)N(C(=O)CC(=O)Nc4ccc(Cl)cc4)N=C3C)cc2)cc1` (centres undefined) yielded a TGI (MDA-N) of over 100 µM, a TGI (A549 NSCLC) of over 100 µM and a TGI (IGROV1 ovarian) of over 100 µM. For the same compound, the TGI (NCI-H226 lung) was over 100 µM, the TGI (HL-60(TB) leukemia) was over 100 µM and the TGI (SR leukemia) was over 100 µM. The TGI (CCRF-CEM leukemia) was over 100 µM, the TGI (SK-MEL-28 melanoma) was over 100 µM and the TGI (OVCAR-5 ovarian) was over 100 µM. For the same compound, the TGI (NCI-H522 lung) was over 100 µM, the TGI (LOX IMVI melanoma) was over 100 µM and the TGI (SNB-75 CNS) was over 100 µM.
`CC(CC(C)[C@H]1CCC2[C@H]3C(CC(=O)[C@@]21C)[C@@]1(C)CCC(O)C[C@H]1C[C@@H]3O)C(=O)O` (some centres undefined) showed a TGI (MDA-N) of over 100 µM, a TGI (A549 NSCLC) of over 100 µM and a TGI (IGROV1 ovarian) of over 100 µM. It also gave a TGI (NCI-H226 lung) of over 100 µM, a TGI (HL-60(TB) leukemia) of over 100 µM and a TGI (SR leukemia) of over 100 µM. It also gave a TGI (CCRF-CEM leukemia) of over 100 µM, a TGI (SK-MEL-28 melanoma) of over 100 µM and a TGI (OVCAR-5 ovarian) of over 100 µM. It also gave a TGI (NCI-H522 lung) of over 100 µM, a TGI (LOX IMVI melanoma) of over 100 µM and a TGI (SNB-75 CNS) of over 100 µM.
For `COc1ccc(OC2OC(CO)C(O)C(O)C2O)cc1` (centres undefined), the TGI (MDA-N) was over 100 µM, the TGI (A549 NSCLC) was over 100 µM and the TGI (IGROV1 ovarian) was over 100 µM. For the same compound, the TGI (NCI-H226 lung) was over 100 µM, the TGI (HL-60(TB) leukemia) was over 100 µM and the TGI (SR leukemia) was over 100 µM. It also gave a TGI (CCRF-CEM leukemia) of over 100 µM, a TGI (SK-MEL-28 melanoma) of over 100 µM and a TGI (OVCAR-5 ovarian) of over 100 µM. The TGI (NCI-H522 lung) was over 100 µM, the TGI (LOX IMVI melanoma) was over 100 µM and the TGI (SNB-75 CNS) was over 100 µM.
`O=C1O/C(=C(/Cl)c2c3ccccc3cc3ccccc23)c2ccccc21` was tested, and the TGI (MDA-N) was over 100 µM, the TGI (A549 NSCLC) was over 100 µM and the TGI (IGROV1 ovarian) was 71.2 µM. For the same compound, the TGI (NCI-H226 lung) was 73.6 µM, the TGI (HL-60(TB) leukemia) was 22.6 µM and the TGI (SR leukemia) was 35.6 µM. The TGI (CCRF-CEM leukemia) was 59.1 µM, the TGI (SK-MEL-28 melanoma) was over 100 µM and the TGI (OVCAR-5 ovarian) was over 100 µM. The TGI (NCI-H522 lung) was over 100 µM, the TGI (LOX IMVI melanoma) was 8.04 µM and the TGI (SNB-75 CNS) was 36.6 µM.
In the case of `COc1cc(OC)c2nc(C)c3c(c2c1)OCC3`, the TGI (MDA-N) is reported as over 100 µM, the TGI (A549 NSCLC) is reported as over 100 µM and the TGI (IGROV1 ovarian) is reported as over 100 µM. The TGI (NCI-H226 lung) was over 100 µM, the TGI (HL-60(TB) leukemia) was over 100 µM and the TGI (SR leukemia) was over 100 µM. The TGI (CCRF-CEM leukemia) was over 100 µM, the TGI (SK-MEL-28 melanoma) was over 100 µM and the TGI (OVCAR-5 ovarian) was over 100 µM. For the same compound, the TGI (NCI-H522 lung) was over 100 µM, the TGI (LOX IMVI melanoma) was over 100 µM and the TGI (SNB-75 CNS) was over 100 µM.
For `O=C1CC2(CCNCC2)C(=O)N1N1CCCCC1`, the TGI (MDA-N) was over 100 µM, the TGI (A549 NSCLC) was over 100 µM and the TGI (IGROV1 ovarian) was over 100 µM. The TGI (NCI-H226 lung) was over 100 µM, the TGI (HL-60(TB) leukemia) was over 100 µM and the TGI (SR leukemia) was over 100 µM. For the same compound, the TGI (CCRF-CEM leukemia) was over 100 µM, the TGI (SK-MEL-28 melanoma) was over 100 µM and the TGI (OVCAR-5 ovarian) was over 100 µM. For the same compound, the TGI (NCI-H522 lung) was over 100 µM, the TGI (LOX IMVI melanoma) was over 100 µM and the TGI (SNB-75 CNS) was over 100 µM.
For `CC1(C)CC2C(/C1=N/O)C1(C)CCCC2(C)C1O` (centres undefined), the TGI (MDA-N) was over 100 µM, the TGI (A549 NSCLC) was over 100 µM and the TGI (IGROV1 ovarian) was over 100 µM. The TGI (NCI-H226 lung) was over 100 µM, the TGI (HL-60(TB) leukemia) was over 100 µM and the TGI (SR leukemia) was over 100 µM. It also gave a TGI (CCRF-CEM leukemia) of over 100 µM, a TGI (SK-MEL-28 melanoma) of over 100 µM and a TGI (OVCAR-5 ovarian) of over 100 µM. The TGI (NCI-H522 lung) was over 100 µM, the TGI (LOX IMVI melanoma) was over 100 µM and the TGI (SNB-75 CNS) was over 100 µM.
Work on `[O-]/[N+](=N/c1ncc(-c2ccccc2)cn1)c1ncc(-c2ccccc2)cn1` yielded a TGI (MDA-N) of over 100 µM, a TGI (A549 NSCLC) of over 100 µM and a TGI (IGROV1 ovarian) of over 100 µM. For the same compound, the TGI (NCI-H226 lung) was over 100 µM, the TGI (HL-60(TB) leukemia) was over 100 µM and the TGI (SR leukemia) was over 100 µM. For the same compound, the TGI (CCRF-CEM leukemia) was over 100 µM, the TGI (SK-MEL-28 melanoma) was over 100 µM and the TGI (OVCAR-5 ovarian) was over 100 µM. For the same compound, the TGI (NCI-H522 lung) was 32.3 µM, the TGI (LOX IMVI melanoma) was over 100 µM and the TGI (SNB-75 CNS) was over 100 µM.
